Test results taken from patent US20240423964A1, “METHODS AND COMPOSITIONS FOR IMPROVING NEUROMUSCULAR JUNCTION MORPHOLOGY AND FUNCTION” (The Board of Trustees of the Leland Stanford Junior …, priority 2021, published 2024).
“Also recorded” adds a separate entry of the source.

Tests used:
aged mice [1] = experiment: Motor neuron apoptosis: cleaved caspase-3 in ChAT+ neurons of the lumbar spinal cord of aged mice; format: in vivo, mouse; details: ChAT+ neurons in ventral horn of lumbar spinal cord
Description: (§1) Mice were treated for 1 month once a day intraperitoneally with 5 mg/kg of SW033291 (SW) or vehicle (10% ethanol, 5% Cremophor EL, and 85% D5W (5% (wt/v) dextrose in water, Tables 3 and 4)) as previously described (2). Vehicle and SW treatments were performed in seven independent experiments for aging studies that included young and aged vehicle- and SW-treated groups. Mice were randomized based on their body weight into vehicle-treated control and SW-treated experimental groups prior to the start of injections. A full-body necropsy was performed on all mice at the experimental endpoint and mice that developed tumors were excluded from the study.
Spinal cords were harvested as previously described using hydraulic extrusion of the entire intact spinal cord. Briefly, mice were euthanized with carbon dioxide and decapitated using scissors caudally to the brain stem. The spinal columns were severed just caudal to the sacral spinal cord. A blunt 25-gauge syringe containing ice-cold PBS was inserted into the caudal end of the spinal cord to hydraulicly extrude the entire cord in a petri0dish with ice-cold PBS. The lumbar region was identified under a stereomicroscope, dissected with a sharp blade, and fixed overnight at 4 C in 4% PFA in phosphate buffer. Fixed lumbar spinal cords were embedded in O.C.T. and were frozen in liquid-nitrogen-cooled isopentane. […]

[2] = tested on: mice undergoing unilateral sciatic nerve crush; experiment: Sciatic nerve crush: NMJ denervation in ipsilateral EDL muscles (immunofluorescence); format: in vivo, mouse; details: 14 dpi, daily intraperitoneal treatment, compared to vehicle-treated controls
Description: (§2) Nerve injury was induced as described below. Mice were treated with SW or vehicle as control intraperitoneally once daily for 14 days post-injury as described above.
The sciatic nerve crush surgery was adopted from the protocol described previously by Bauder and Ferguson (41). The crush surgery was performed as described above with the following modifications. After locating the sciatic nerve, the nerve was mobilized gently with sharp sticks for easy access with hemostatic forceps (Fine Science Tools, 13020-12). Next, the nerve was gently placed on the bottom jaw of the forceps and was crushed for 15 seconds at 3 clicks of the forceps (first location of the locking handle). The incision was closed using 7 mm autoclaved reflex clips (World Precision Instruments, 500344; Applier: 500345). Mice were monitored for recovery from anesthesia and then returned to their home cages. […]
Confocal images were acquired on a Marianas spinning disk confocal (SDC) microscopy with Intelligent Imaging Innovations software using a 20×/NA 0.75 or an oil immersion 40×/NA 0.9 objective to capture multiple focal planes at a step size of 1 μm. Images acquired using the 20× objective were analyzed to score denervation, axonal swelling, and fragmentation of AChRs. Images acquired with the oil immersion 40× objective were analyzed to quantity NMJ-associated endolysosomal vesicles stained with α-bungarotoxin-AF647. […]

[3] = tested on: mice undergoing unilateral sciatic nerve crush; experiment: Sciatic nerve crush: body weight and gastrocnemius/soleus muscle weight; format: in vivo, mouse
Description: as §2
(§3) The sciatic nerve crush surgery was adopted from the protocol described previously by Bauder and Ferguson (41). The crush surgery was performed as described above with the following modifications. After locating the sciatic nerve, the nerve was mobilized gently with sharp sticks for easy access with hemostatic forceps (Fine Science Tools, 13020-12). Next, the nerve was gently placed on the bottom jaw of the forceps and was crushed for 15 seconds at 3 clicks of the forceps (first location of the locking handle). The incision was closed using 7 mm autoclaved reflex clips (World Precision Instruments, 500344; Applier: 500345). Mice were monitored for recovery from anesthesia and then returned to their home cages.

15-PGDH = 15-PGDH (Mus musculus, UniProt Q8VCC1); details: in vivo; cited from earlier work
Chain of 15-PGDH (Q8VCC1 whole entry): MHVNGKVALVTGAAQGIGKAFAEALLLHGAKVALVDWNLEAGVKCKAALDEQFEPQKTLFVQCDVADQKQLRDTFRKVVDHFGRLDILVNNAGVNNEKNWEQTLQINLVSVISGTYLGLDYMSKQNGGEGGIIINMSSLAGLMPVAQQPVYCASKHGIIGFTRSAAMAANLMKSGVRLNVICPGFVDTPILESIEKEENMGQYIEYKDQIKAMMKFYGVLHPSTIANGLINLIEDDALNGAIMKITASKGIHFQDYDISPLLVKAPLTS

aged mice [4] = experiment: Aged mice treated systemically with SW033291 for one month: muscle PGE2 levels, muscle mass and force; format: in vivo, mouse; details: systemic treatment for one month
Description: The prostaglandin E2 catabolizing enzyme, 15-hydroxyprostaglandin dehydrogenase (15-PGDH), is a pivotal regulator of muscle aging and that its inhibition leads to a marked increase in muscle mass and strength in aged mice^1. 15-PGDH is a nicotinamide adenine dinucleotide (NAD+) dependent enzyme that increases with aging in muscle and catabolizes PGE2. FIGS. 1A-1B show increased 15-PGDH activity along with PGE2 levels, and these are reduced in aged mouse muscle. […] Strikingly, overexpression of 15-PGDH in young mouse muscles leads to loss of muscle mass and strength after just one month^1. […]
Plantar flexion peak isometric torque (N·mm) was measured in mice as described previously (2, 42, 43). […] Data were analyzed using Aurora Scientific Dynamic Muscle Analysis Software Suite. Force was measured longitudinally in mice undergoing unilateral sciatic nerve crush injury on days 3, 7, and 14 post-injury. Peak tetanic force generated by contralateral uninjured legs was measured in all experimental mice at all time points.
Prostaglandins, PGE2, PGD2, and PGF2a, and PGE2 metabolites, 15-keto PGE2 and 13,14-dihydro-15-keto PGE2 (PGEM), were measured as described previously (2). Briefly, tissues were snap frozen in liquid nitrogen upon dissection and were kept for no more than 2 weeks in −80° C. freezer before processing for prostaglandin quantification using LC-MS/MS. […]

[5] = tested on: mice undergoing unilateral sciatic nerve crush; experiment: Sciatic nerve crush: plantar flexion tetanic force by nerve stimulation; format: in vivo, mouse
Description: as §2, §3
Plantar flexion peak isometric torque (N·mm) was measured in mice as described previously (2, 42, 43). Briefly, mice were anesthetized with 3% isoflurane mixed with oxygen and legs were shaved from ankle to hip to allow for reproducible access to the tibial nerve. The foot was taped to a footplate attached to a servomotor (Aurora Scientific, 300C-LR) and the knee joint was secured to a fixed steel post. Contractions were elicited by percutaneous electrical stimulation of the tibial nerve by inserting two Pt—Ir electrode needles (Aurora Scientific) posterior to the knee joint. The peak isometric torque was achieved by injecting 0.4 mA current to the tibial nerve at a frequency of 150 Hz and 0.1 ms square wave pulse. Three tetanic measurements were performed on each muscle, with 1 minute recovery between each measurement, and chose the highest value. Force measurement acquisition was blinded and the researcher performing the force measurements was unaware of treatment conditions. Data were analyzed using Aurora Scientific Dynamic Muscle Analysis Software Suite. Force was measured longitudinally in mice undergoing unilateral sciatic nerve crush injury on days 3, 7, and 14 post-injury. Peak tetanic force generated by contralateral uninjured legs was measured in all experimental mice at all time points.

aged mice [6] = experiment: NMJ morphology in EDL muscles of aged mice (whole-mount staining, confocal microscopy); format: in vivo, mouse
Description: as §1
Extensor digitorum longus (EDL) and soleus muscles were dissected and fixed in 4% PFA in PBS for 30 minutes at room temperature. Muscles were washed in PBS extensively and stored in PBS with 0.01% sodium azide (Sigma. S2002) at 4 C until processed. For whole-mount staining, EDLs were separated using the distal tendon into 4 pieces to make thinner sheets of muscles for staining. The proximal and distal tendons of either soleus or EDL pieces were removed to allow for teasing thin bundles of muscle fibers using fine forceps under a stereomicroscope. Care was given in handling tissues to avoid touching the end plate band with forceps tips. Next, myofiber bundles were incubated in PBS-T (0.3% Triton X-100 in PBS) for 1 hour and were blocked in blocking solution (5% goat serum and 0.3% Triton X-100 in PBS) supplemented with 1:50 dilution of goat anti-mouse IgG (Jackson ImmunoResearch, 115-007-003) and IgM (Jackson ImmunoResearch, 115-007-020) for 1 hour at room temperature. Tissues were then incubated with a primary antibody mix against neurofilament and synaptic vesicle (2H3 and SV, DSHB) at 5 μg/ml for a minimum of 24 hours at 4 C with gentle shaking. Tissues were then rinsed with PBS-T and incubated with a secondary antibody mix (goat anti-mouse IgG1-Cy™3, Bungarotoxin-AF™647, and Hoechst 33342) diluted in blocking solution overnight at 4° C. with gentle shaking. Tissues were washed extensively with PBS and mounted in Fluoromount-G™ mounting medium (Southern Biotech, 0100-01) and left overnight to equilibrate prior to confocal microscopy.
Confocal images were acquired on a Marianas spinning disk confocal (SDC) microscopy with Intelligent Imaging Innovations software using a 20×/NA 0.75 or an oil immersion 40×/NA 0.9 objective to capture multiple focal planes at a step size of 1 μm. Images acquired using the 20× objective were analyzed to score denervation, axonal swelling, and fragmentation of AChRs. Images acquired with the oil immersion 40× objective were analyzed to quantity NMJ-associated endolysosomal vesicles stained with α-bungarotoxin-AF647. Maximum intensity projection images were created from confocal slices using NIH ImageJ software. Data acquisition and NMJ scoring were performed by two researchers blinded to treatment conditions.

aged mice [7] = experiment: Electron microscopy of motor neuron-associated mitochondria in EDL axons of aged mice; format: in vivo, mouse; details: one month of treatment, listed as SW
Description: as §1
Extensor digitorum longus (EDL) muscles were dissected and pinned by proximal and distal tendons to the bottom of a petri-dish coated with silicone rubber. Tissues fixed in 2% Glutaraldehyde (Electron Microscopy Sciences, 16000) and 4% paraformaldehyde (Electron Microscopy Sciences, 15700) in 0.1M sodium cacodylate (Electron Microscopy Sciences, 12300) pH 7.4 for 24 hours. Tissues were then transferred from petri-dishes to microcentrifuge tubes with 1% Osmium tetroxide (Electron Microscopy Sciences, 19100) and were kept at room temperature for 1 hour with gentle rotation. […] Images were quantified by an individual blinded to experimental conditions in ImageJ.

[8] = aged mice, one month of intraperitoneal administration
[9] = geriatric mice (>26 months), one month once daily i.p., EDL

CCCC[S+]([O-])c1sc2nc(-c3cccs3)cc(-c3ccccc3)c2c1N (centres unmarked) [SW033291, 2-(butylsulfinyl)-4-phenyl-6-(thiophen-2-yl)thieno[2,3-b]pyridin-3-amine]
activated caspase-3 in aged lumbar motor neurons (apoptosis) (aged mice [1]): lower levels
denervation rates in EDLs ipsilateral to the nerve crush [2]: significantly reduced
muscle mass in injured legs ([3]; 14 dpi, gastrocnemius and soleus): significant increase
muscle weight of the contralateral control legs, difference between vehicle and SW treatment ([3]; contralateral control legs, 14 days post nerve crush): No differences
animals body weight, difference between vehicle and SW treatment ([3]; nerve crush model): No differences
catabolic regulators of muscle atrophy such as atrogenes, ubiquitin ligases MuRF1 (Trim63) and Fbxo32, and TGF-beta signaling (15-PGDH): reduction
increase in muscle mass and force (aged mice [4]): 15-20%
muscle PGE2 levels (aged mice [4]): to the physiological levels measured in young mice
tetanic plantar flexor force in the injured leg, difference between vehicle and SW ([5]; 3 dpi until 7 dpi): no differences between the experimental groups
plantar flexion force of the contralateral (uninjured) legs, difference between vehicle and SW ([5]; contralateral control legs, listed as SW): no significant differences
increase in specific force (force normalized to gastrocnemius and soleus weight) ([5]; mean±S.D., compared to vehicle-treated control mice, 14 days post nerve crush): 52±10%
increase in plantar flexion force generation in injured legs ([5]; mean±S.D., daily intraperitoneal treatment after nerve crush): 69±8%
morphology of the AChRs (aged mice [6]; [8]): improves, enhances, and/or rejuvenates the intact morphology of the AChRs
number of AChR rich endo/lysosomal vesicles (aged mice [6]; [8]): striking reduction
number of AChR rich endo/lysosomal vesicles (aged mice [6]; aged mice, one month of intraperitoneal administration, listed as SW): reduces
aged NMJ morphology (aged mice [6]; [9]): improved, enhanced, and/or rejuvenated to branched and pretzel-like structures found in young EDLs
incidence of AChR fragmentation (aged mice [6]; [9]): significantly reduced
incidence of motor neuron axonal swelling (aged mice [6]; [9]): significantly reduced
rate of denervation in aged EDLs (aged mice [6]; geriatric mice (>26 months), one month once daily i.p., mean±S.E.M.): 12.4±2.9
mitochondrial morphology in motor neurons (distal axons / heavily myelinated axons of EDL) (aged mice [7]): improvement, enhancement, and/or rejuvenation of mitochondrial morphology; also recorded: improved, enhanced, and/or rejuvenated to compact circular mitochondria morphology resembling that seen in young
